The values that follow come from EP0140848A1, “A pharmaceutical composition containing azo-bis-salicylic acid or a salt thereof, and a method for the treatment of inflammatory conditions in the intestines” (priority 1983, dated 1985).

In data set [1] the test system is tuberculosis. The conditions noted are these: according to Ind. J. Med. Res. 40 (1952), p. 4-5, and Ind. J. Pharm. 13 (1951), p. 3-5; cited from earlier work.
The nature of data set [2]: Toxicity (general statement, no method described). Conditions: no data or method given.

As for `O=C(O)c1ccc(N=Nc2ccc(C(=O)O)c(O)c2)cc1O` [4,4'-azo-bis-salicylic acid], the activity against tuberculosis result in data set [1] is “inactive”. In addition, in data set [2], the toxicity result is recorded as “remarkably low”.

For the compound `CC(=O)Nc1ccc(C(=O)O)c(O)c1` [Ac-PAS, N-acetyl-p-aminosalicylic acid], the toxicity result in data set [2] is given as “remarkably low”.

As for `Nc1ccc(C(=O)O)c(O)c1` [PAS, 4-aminosalicylic acid, reference compound], the toxicity result in data set [2] is reported as “remarkably low”.
